In patent publication US4036846A, “3-Hydroxy and 3-acetoxy-6-triphenyl-methylaminopenams” (priority 1976, dated 1977):
Where “and” joins values, the source holds several entries; their conditions need not be identical. Equal entries are not always repeated. Structures can show the parent of a compound that is named as a salt. Where two headings read alike, the source gives them in different places.

What was measured:
Test in all cases: microbe, parasite or virus in culture
Strep. zoo. 02H001 = type: cell-based, Streptococcus zoobacter; settings: brain-heart infusion agar, 37° C., anaerobic, sodium salts, separate Test Nos. 1-3; for MIC: Streptococcus
Staph. aureus 01A006 = type: cell-based, Staphlococcus aureus; settings: brain-heart infusion agar, 37° C., anaerobic, sodium salts, separate Test Nos. 1-3; for MIC: Staphylococcus aureus
Staph. aureus 01A005 = type: cell-based, Staphlococcus aureus; settings: brain-heart infusion agar, 37° C., anaerobic, sodium salts, separate Test Nos. 1-3; for MIC: Staphylococcus aureus
Strep. equi. 02I001 = type: cell-based, Streptococcus equis; settings: brain-heart infusion agar, 37° C., anaerobic, sodium salts, separate Test Nos. 1-3

Row | Structure (SMILES) | MIC (Strep. zoo. 02H001; Strep. zoo. 02H001, read-out: MIC (minimal inhibitory concentration)) | MIC (Staph. aureus 01A006; Staph. aureus 01A006, read-out: MIC (minimal inhibitory concentration)) | MIC (Staph. aureus 01A005; Staph. aureus 01A005, read-out: MIC (minimal inhibitory concentration)) | MIC (minimal inhibitory concentration) (Strep. zoo. 02H001; Strep. zoo. 02H001, sodium salt) | MIC (Strep. zoo. 02H001; read-out: MIC (minimal inhibitory concentration), Strep. zoo. 02H001) | MIC (minimal inhibitory concentration) (Strep. equi. 02I001; Strep. equi. 02I001, sodium salt) | MIC (Strep. equi. 02I001; Streptococcus equi, read-out: MIC (minimal inhibitory concentration), Strep. equi. 02I001) | MIC (minimal inhibitory concentration) (Staph. aureus 01A006; Staph. aureus 01A006, sodium salt) | MIC (Staph. aureus 01A006; 01A006, read-out: MIC (minimal inhibitory concentration), Staph. aureus 01A006) | MIC (minimal inhibitory concentration) (Staph. aureus 01A005; Staph. aureus 01A005, sodium salt) | MIC (Staph. aureus 01A005; 01A005, read-out: MIC (minimal inhibitory concentration), Staph. aureus 01A005)
1 | COP(=O)(O)C1N2C(=O)C(NC(=O)COc3ccccc3)C2SC1(C)C (centres unmarked) [6-(2-Phenoxyacetamido)-2,2-dimethyl-3-(0-methylphosphono)penam, sodium salt] | > 200 µg/mL | 200 µg/mL | 200 µg/mL | – | – | – | – | – | – | – | –
2 | CC1(C)S[C@@H]2C(NC(=O)COc3ccccc3)C(=O)N2C1P(=O)(O)O.[Na] (some centres unmarked) [6-(2-Phenoxyacetamido)-2,2-dimethyl-3-phosphonopenam, sodium salt] | – | – | – | 100 µg/mL and 200 µg/mL | > 200 µg/mL | 100 µg/mL | > 200 µg/mL | > 200 µg/mL | 200 µg/mL | > 200 µg/mL | 200 µg/mL
